Experimental findings from patent US20250248980A1, “IMMUNE MODULATORY AGENTS” (PRESIDENT AND FELLOWS OF HARVARD COLLEGE, priority 2022, published 2025) are described below.

Common to all, as to format: cell-based
Assay [1] deals with T1, TNF-a receptor (TNF-R1 reporter cells) (Homo sapiens, UniProt P19438).
T1 construct: expressed in transfected cells; development described in WO2022125865A2
The assay is described as follows: TNF-a-receptor GFP reporter cell screen. To be noted: reducing TNF-a-receptor reporter activities; for IC50: GFP percentage by microscope, 48 hours; for Emax: maximal effect at high compound concentrations. As to the method: (§1) FIG. 5 is a dot plot showing the identification of small-molecule compounds that reduce IL-17A or TNF-a receptor activities. Small-molecule screens were performed with 114,665 compounds. Individual compounds were added to IL-17A-reporters or TNF-a-reporters following the addition of respective ligands such as IL-17A or TNF-a (25 ng/ml). The reporter cells were then incubated for additional 48 hours before subjecting them for microscopic analyses (GFP percentage was measured by microscope). Anti-IL17A and anti-TNFa antibodies were used as the positive controls.
The IL-17RA/IL-17RC reporter system was used to identify the IL-17a-specific immune modulatory agents, as described herein (see e.g., compounds (1)-(16)). Furthermore, the IL-17A systems and methods were applied to generate other cytokine/cytokine receptor reporter system (tTA fused onto one receptor subunit via a protease cleavage site, TEV fused to another receptor subunit, optimal linkers inserted between different proteins to ensure high signal-to-background ratio; e.g., for identifying TNF-α-specific immune modulatory agents). The screening platform provided herein was used to identify immune modulatory agents including, but not limited to, small molecules and proteins that modulate IL-17A or TNF-α cytokine signaling.
(§2) Two thousand reporter cells per well (384-well plates) were seeded in 30 ul cell culture medium with either IL-17A (25 ng/ml, unless otherwise indicated) or TNFa ligand (25 ng/ml, unless otherwise indicated); additional screens were performed with IL-17A at 7.5 ng/ml. Then 100 nl of the individual compound was added by a pin transfer and cultured for two days in a CO2 incubator. For the cell viability test, 10 ul HOECHST 33342 was added and incubated for 10 min, followed by the addition of 10 ul 4% PFA. After a 10 min incubation, the reporter cells were washed twice with phosphate-buffered saline (PBS) and kept in 30 ul PBS. The images were acquired and analyzed using an IMAGEXPRESS confocal microscope. For storage, plates were sealed with black light-absorbing films.

For assay [2], the system named is IL17A-dependent gene expression in mouse keratinocytes. The assay is described as follows: IL17A-dependent gene expression in mouse keratinocytes (RT-qPCR, secondary assay, FIG. 11). To be noted: 10 μM compound, 5 ng/ml IL17A, 24 hours. As to the method: Mouse keratinocytes were cultured and stimulated with 5 ng/ml IL17A for 24 hours. During the treatment, 10 μM of each compound was added, and reverse transcription-quantitative polymerase chain reaction (RT-qPCR) was used for the gene expression level analyses of the following genes: cxcl1, cxcl2, cxcl5, 24p3, zc3h12a, S100a8, and S100a9. The top-down order of the treatment conditions indicated in the legend correspond to the left-right order of the bars for each gene. […] Compounds C770-0711 (2), C770-0720 (3), 60546479 (6), C881-0413 (9), and LAS 51593897 (11) are also of interest (see grey boxes).
On the technique in general: In qPCR the cycle at which signal appears reflects the starting amount.

Assay [3] addresses T2, IL-17 receptor (the IL-17RA-IL-17RC heterodimer) (Mus musculus, UniProt Q60943+Q8K4C2, F156E).
T2 sequence (Q60943 32-358): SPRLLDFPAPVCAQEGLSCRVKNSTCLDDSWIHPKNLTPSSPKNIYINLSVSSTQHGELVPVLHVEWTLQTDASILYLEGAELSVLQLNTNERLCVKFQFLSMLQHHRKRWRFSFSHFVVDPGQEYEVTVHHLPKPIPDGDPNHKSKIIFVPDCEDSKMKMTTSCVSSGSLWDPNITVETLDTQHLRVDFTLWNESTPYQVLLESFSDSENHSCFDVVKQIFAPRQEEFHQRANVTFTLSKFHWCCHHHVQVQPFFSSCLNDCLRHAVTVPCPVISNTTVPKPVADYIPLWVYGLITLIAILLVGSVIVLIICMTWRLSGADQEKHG
T2 sequence (Q8K4C2 22-500 F156E): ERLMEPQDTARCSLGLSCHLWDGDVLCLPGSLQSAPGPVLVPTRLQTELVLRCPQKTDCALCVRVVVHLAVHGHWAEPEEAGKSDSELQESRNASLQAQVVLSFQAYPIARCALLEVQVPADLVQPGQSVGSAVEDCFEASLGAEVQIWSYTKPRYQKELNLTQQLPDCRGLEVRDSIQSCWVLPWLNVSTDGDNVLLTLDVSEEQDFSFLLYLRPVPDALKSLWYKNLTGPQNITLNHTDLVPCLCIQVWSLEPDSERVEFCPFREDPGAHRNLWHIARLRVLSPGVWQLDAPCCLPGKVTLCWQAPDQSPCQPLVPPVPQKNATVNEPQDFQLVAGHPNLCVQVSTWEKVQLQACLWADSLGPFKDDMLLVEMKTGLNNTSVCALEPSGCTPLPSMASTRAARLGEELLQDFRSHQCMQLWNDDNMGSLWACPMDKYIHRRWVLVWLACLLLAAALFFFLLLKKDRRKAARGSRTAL
T2 sequence (Q62386 26-158 partner): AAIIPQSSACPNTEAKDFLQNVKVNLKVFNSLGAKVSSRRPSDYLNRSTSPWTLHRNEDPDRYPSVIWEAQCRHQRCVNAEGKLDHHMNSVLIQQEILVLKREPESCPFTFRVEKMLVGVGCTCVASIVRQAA
The assay is described as follows: IL-17A-receptor (IL-17RA/IL-17RC) GFP reporter cell screen. To be noted: for IC50 / Emax: reducing IL-17A-receptor reporter activities; for IC50: GFP percentage by microscope, 48 hours; for Emax: maximal effect at high compound concentrations. As to the method: as §1
To identify small molecule compounds that control IL-17R activity, a screening platform was used to monitor IL-17a binding to its receptor. Upon IL-17a binding to its receptor subunit A (IL-17RA), another receptor subunit IL-17RC is recruited, and these two subunits form a heterodimer. In the exemplary reporter system, a transcription factor (tTA) was tethered, via a protease cleavage site, to IL-17RA. In addition, a tobacco etch virus (TEV) protease was fused to the receptor subunit IL-17RC. Upon the IL-17a-dependent recruitment of IL-17RC-TEV to IL-17RA-tTA, the tTA is cleaved off from its membrane anchor IL-17RA. The released tTA then enters the nucleus and activates the reporter gene (e.g., in this case, GFP). The IL-17RA/RC reporter system responds highly selectively to IL-17a, but not to other related IL-17 family cytokines (except IL-17f).
as §2

“Also recorded” adds a separate entry of the source. Like-named read-outs stand apart in the source and are kept apart here.

On to `CS(=O)(=O)c1ccc(C2(C(=O)N3CCSCC3)CCCCC2)cc1` [Compound 41], for which, in assay [1], the IC50 was 5.89 µM and the Emax is on record as 98%.

Regarding `CCOc1ccc(S(=O)(=O)c2c(C(=O)c3ccc(CC)cc3)cnc3ccc(C)cc23)cc1` [Compound 3], the “effect on IL17A-dependent gene expression” value (“effect” for short) in assay [2] was “inhibitory activities”. In assay [3], this molecule had a 50% inhibitory concentration (IC50) of 12.2 µM and an Emax of 44%.

In assay [1], `O=C(NC1(CN2CCOCC2)CCCCC1)c1ccccc1N1CCOCC1` [Compound 40] gave an IC50 of 2.16 µM and an Emax of 76%.

In assay [1], `COc1cccc(CNC(=O)CSC2=Nc3ccccc3N=C(c3ccc(F)cc3)C2)c1` [Compound 12] displayed an IC50 of 6.3 µM and an Emax of 32%.

In assay [1], `CC(C)C1N=C2c3ccccc3N=C(SCC(=O)NCc3ccc(F)cc3)N2C1=O` (centres unmarked) [Compound 61] had an IC50 of 8.78 µM and an Emax of 88%.

In the case of `O=C(Nc1ccc(Cl)cc1Cl)c1cc(S(=O)(=O)N2CCCCCC2)ccc1F` [Compound 7], in assay [3], the IC50 came out at 15 µM and the Emax is listed as 57%.

In assay [1], `COc1cccc(-c2nn(-c3ccccc3)cc2CN2CCC(NC(C)=O)C2)c1` (centres unmarked) [Compound 24] registered a half-inhibitory concentration (IC50) of 0.61 µM and an Emax of 75%.

`CCCN(C/C=C/c1ccccc1)C(=O)CCc1cc2n(n1)CCCNC2` [Compound 52]: in assay [1], the IC50 came to 8.45 µM and the Emax is given as 90%.

In the case of `Cc1ccc(NC(=O)Cn2cc3c(n2)CCCC3)cc1Cl` [Compound 9], the “effect” value in assay [2] was “inhibitory activities; also recorded: robust inhibitory effects”. The “specificity for IL-17A-receptor reporter over other cytokine receptor reporters” value in assay [3] (in words) was “reduce IL-17A-, not TNF-a-, receptor reporter activities”. Also, in assay [3] (read-out: Emax), the Emax is 67%.

In assay [1], `Cc1ccc(Cn2c(CNS(=O)(=O)c3ccc(Cl)s3)nc3cccnc32)cc1` [Compound 34] showed an IC50 of 0.86 µM and an Emax of 64%.

In the case of `CCc1ccc(S(=O)(=O)c2c(C(=O)c3ccccc3)cnc3ccc(CC)cc23)cc1` [Compound 1], in assay [3], the IC50 is 4.81 µM and the Emax stood at 78%.

As to `CCN1CCOc2ccccc2CCCC2(CN(C(=O)c3cc(-c4ccccc4F)no3)CCO2)C1=O` (racemic) [Compound 11], the “effect” value in assay [2] is recorded as “robust inhibitory effects”.

For `COCCn1ccnc1CN(CCO)CCCOc1ccc(Cl)cc1Cl` [Compound 13], in assay [1], it took 1.95 µM to reach half-maximal inhibition (IC50) and the Emax was determined as 42%.

As to `CCOC(=O)c1ccccc1NC(=O)N1CCCN(S(=O)(=O)c2ccc3c(ccn3CC)c2)CC1` [Compound 36], in assay [1], the IC50 was 7.72 µM and the maximal effect (Emax) is 92%.

Take `COc1ccc(NC(=O)C(NS(=O)(=O)c2cccc3nsnc23)c2ccccc2)cc1` (centres unmarked) [Compound 38]: in assay [1], inhibition was half-maximal at 3.99 µM (IC50) and the Emax was determined as 91%.

In assay [1], `COc1cc(C(=O)NCCc2csc3nc(-c4ccccc4C)nn23)cc(OC)c1OC` [Compound 64] yielded an IC50 of 4.85 µM and an Emax of 93%.

In assay [1], `CC(C)Oc1ccccc1-c1cccc(C(=O)NCCc2nncn2C)c1` [Compound 57] registered an IC50 of 2.34 µM and an Emax of 47%.

In assay [1], `COc1ccc(NC(=O)CSc2nc3ccccc3n2CC(=O)N(C)C2CCCCC2)cc1` [Compound 60] gave an IC50 of 6.98 µM and an Emax of 88%.

In assay [1], `CN(Cc1ccc2nonc2c1)C(=O)C(c1ccc(F)cc1)N1CCCCC1` (centres unmarked) [Compound 17] registered an IC50 of 1.46 µM and an Emax of 66%.

Turning to `COc1cc(CN2CCCC(CNC(=O)COc3ccccc3OC)C2)ccc1F` (centres unmarked) [Compound 49], in assay [1], half-maximal inhibition (IC50) required 0.791 µM and the Emax is on record as 87%.

Regarding `O=C(NCc1cccc(Cl)c1)C1(Cc2cscn2)CC2CCC1N2` (centres unmarked) [Compound 48], in assay [1], the IC50 is 3.62 µM and the Emax came out at 68%.

In assay [1], `O=c1n(Cc2cccc3ccccc23)nc(C2CCCNC2)n1-c1ccccc1` (centres unmarked) [Compound 62] displayed an IC50 of 1.82 µM and an Emax of 60%.

For the molecule `CC(C)CN1CCc2[nH]cnc2C12CCN(C(=O)c1cccc(F)c1)CC2` [Compound 27], in assay [1], the IC50 is 2.16 µM and the Emax was determined as 66%.

In assay [1], `Cc1ccc(Cn2c(CNS(=O)(=O)c3ccc(F)c(Cl)c3)nc3cccnc32)cc1` [Compound 45] had an IC50 of 1.3 µM and a maximal effect (Emax) of 67%.

Regarding `CC(C)(CO)CNC1CC(C)(C)Cc2c1cnn2-c1cccc(F)c1` (centres unmarked) [Compound 63], in assay [1], the midpoint of inhibition, the IC50, lay at 1.78 µM and the maximal effect (Emax) stood at 65%.

On to `O=C(NCCNC(=O)C(c1ccc(F)cc1)N1CCCCC1)c1ccccc1Cl` (centres unmarked) [Compound 25], for which, in assay [1], inhibition was half-maximal at 1.67 µM (IC50) and the Emax is reported as 52%.

In assay [1], `CCc1ccccc1NC(=O)CN1C(=O)COc2ccc(S(=O)(=O)Nc3ccccc3)cc21` [Compound 16] yielded an IC50 of 1.58 µM and a maximal response (Emax) of 75%.

For the molecule `COc1cc(NC(=O)C(Cc2ccccc2)NS(=O)(=O)c2cccs2)cc(OC)c1` (centres unmarked) [Compound 35], in assay [1], the IC50 was 2.56 µM and the Emax was determined as 97%.

In the case of `O=C(c1ccccc1OC(F)(F)C(F)F)N1CCNC(=O)C12CCCC2` [Compound 76], in assay [1], the IC50 worked out at 1.35 µM and the Emax was 64%.

In assay [1], `O=C(CSC1=Nc2ccccc2N=C(c2ccc(F)cc2)C1)NCc1ccc(F)cc1` [Compound 23] returned an IC50 of 5.3 µM and a maximal response (Emax) of 76%.

Turning to `Oc1cccc(CN2CCCC(NCc3cc(-c4ccccc4)no3)C2)c1` (centres unmarked) [Compound 51], in assay [1], the IC50 turned out to be 0.823 µM and the Emax came out at 85%.

On to `CCc1ccc(S(=O)(=O)c2c(C(=O)c3ccc(C)c(C)c3)cnc3ccccc23)cc1` [Compound 5], for which, in assay [3], the 50% inhibitory concentration (IC50) stood at 6.83 µM and the Emax came out at 57%.

By IC50 is commonly meant the midpoint of a concentration-inhibition curve. Read a high IC50 as lower potency. As usually defined, the Emax is the greatest response seen or fitted, relative to the assay's reference.
